Results reported in patent publication US8729082B2, “Substituted imidazoquinoxalines” (Bayer Intellectual Property GmbH, priority 2009, dated 2014).

Target: T1, human kinase Mps-1 (Homo sapiens, UniProt P33981)
T1 construct: N-terminally GST-tagged human full length recombinant Mps-1 kinase; purchased Invitrogen, Karslruhe, Germany PV4071
T1 sequence (P33981 1-857): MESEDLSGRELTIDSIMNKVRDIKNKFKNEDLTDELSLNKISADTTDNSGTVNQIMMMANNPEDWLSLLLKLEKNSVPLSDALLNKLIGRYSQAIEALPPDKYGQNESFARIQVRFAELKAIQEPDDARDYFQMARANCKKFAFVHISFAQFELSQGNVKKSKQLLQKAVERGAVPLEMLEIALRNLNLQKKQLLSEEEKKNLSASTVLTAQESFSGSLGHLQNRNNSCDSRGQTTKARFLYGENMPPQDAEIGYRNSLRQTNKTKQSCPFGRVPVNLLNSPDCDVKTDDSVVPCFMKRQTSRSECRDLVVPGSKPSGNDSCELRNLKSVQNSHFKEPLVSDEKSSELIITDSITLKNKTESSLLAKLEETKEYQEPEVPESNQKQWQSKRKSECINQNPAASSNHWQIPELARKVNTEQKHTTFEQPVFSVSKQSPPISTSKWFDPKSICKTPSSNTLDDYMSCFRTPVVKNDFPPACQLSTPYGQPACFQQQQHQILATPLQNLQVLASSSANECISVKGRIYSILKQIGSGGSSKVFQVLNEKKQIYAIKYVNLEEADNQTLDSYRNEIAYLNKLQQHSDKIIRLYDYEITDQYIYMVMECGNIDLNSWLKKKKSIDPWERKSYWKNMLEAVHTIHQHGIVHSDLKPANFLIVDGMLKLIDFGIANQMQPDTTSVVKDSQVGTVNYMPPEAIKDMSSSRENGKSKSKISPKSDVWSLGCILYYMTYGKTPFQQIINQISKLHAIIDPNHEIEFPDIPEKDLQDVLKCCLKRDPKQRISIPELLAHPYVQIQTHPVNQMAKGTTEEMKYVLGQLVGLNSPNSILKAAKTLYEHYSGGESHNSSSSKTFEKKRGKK
Test: Mps-1 kinase assay (HTRF)
Format: biochemical
Conditions: lowATP; mean; read-out: Mps1 lowATP mean IC50
Protocol: The human kinase Mps-1 phosphorylates a biotinylated substrate peptide. Detection of the phosphorylated product is achieved by homogenous time-resolved fluorescence resonance energy transfer (HTRF) from Europium-labelled anti-phospho-Serine/Threonine antibody as donor to streptavidin labelled with cross-linked allophycocyanin (SA-XLent) as acceptor. Compounds are tested for their inhibition of the kinase activity.
N-terminally GST-tagged human full length recombinant Mps-1 kinase (purchased from Invitrogen, Karslruhe, Germany, cat. no PV4071) was used. As substrate for the kinase reaction a biotinylated peptide of the amino-acid sequence PWDPDDADITEILG (C-terminus in amide form, purchased from Biosynthan GmbH, Berlin) was used.
For the assay 50 nl of a 100-fold concentrated solution of the test compound in DMSO was pipetted into a black low volume 384 well microtiter plate (Greiner Bio-One, Frickenhausen, Germany), 2 μl of a solution of Mps-1 in assay buffer [0.1 mM sodium-ortho-vanadate, 10 mM MgCl2, 2 mM DTT, 25 mM Hepes pH 7.7, 0.05% BSA, 0.001% Pluronic F-127] were added and the mixture was incubated for 15 min at 22° C. to allow pre-binding of the test compounds to Mps-1 before the start of the kinase reaction. Then the kinase reaction was started by the addition of 3 μl of a solution of 16.7 μM ATP and 1.67 μM peptide in assay buffer and the resulting mixture was incubated for a reaction time of 60 min at 22° C. The concentration of Mps-1 in the assay was adjusted to the activity of the enzyme lot and was chosen appropriate to have the assay in the linear range, typical enzyme concentrations were in the range of about 1 nM (final conc. in the 5 μl assay volume). The reaction was stopped by the addition of 3 μl of a solution of HTRF detection reagents (100 mM Hepes pH 7.4, 0.1% BSA, 40 mM EDTA, 140 nM Streptavidin-XLent [#61GSTXLB, Fa. Cis Biointernational, Marcoule, France], 1.5 nM anti-phospho(Ser/Thr)-Europium-antibody [#AD0180, PerkinElmer LAS, Rodgau-Jügesheim, Germany].
The resulting mixture was incubated 1 h at 22° C. to allow the binding of the phosphorylated peptide to the anti-phospho(Ser/Thr)-Europium-antibody. Subsequently the amount of phosphorylated substrate was evaluated by measurement of the resonance energy transfer from the Europium-labelled anti-phospho(Ser/Thr) antibody to the Streptavidin-XLent. Therefore, the fluorescence emissions at 620 nm and 665 nm after excitation at 350 nm was measured in a HTRF reader, e.g. a Rubystar (BMG Labtechnologies, Offenburg, Germany) or a Viewlux (PerkinElmer LAS, Rodgau-Jügesheim, Germany). The ratio of the emissions at 665 nm and at […] was taken as the measure for the amount of phosphorylated substrate. The data were normalised (enzyme reaction without inhibitor=0% inhibition, all other assay components but no enzyme=100% inhibition).

Structure (SMILES)	IC50 [nM]
CC(C)CNc1nc2ccccc2n2c(-c3ccc(C(=O)NC4(CO)CC4)cc3)cnc12 [Example 3-30, N-[1-(hydroxymethyl)cyclopropyl]-4-{4-[(2-methylpropyl)amino]imidazo[1,2-a]quinoxalin-1-yl}benzamide]	275
NC(=O)CCNc1nc2cc(F)c(F)cc2n2c(-c3ccc(C(=O)NC4CC4)c(Cl)c3)cnc12 [Example 2-138, 4-{4-[(3-amino-3-oxopropyl)amino]-7,8-difluoroimidazo[1,2-a]quinoxalin-1-yl}-2-chloro-N-cyclopropylbenzamide]	11200
CC(C)CNc1nc2ccccc2n2c(-c3cccc4cnccc34)cnc12 [Example 1-19, 1-(isoquinolin-5-yl)-N-(2-methylpropyl)imidazo[1,2-a]quinoxalin-4-amine]	11800
Cc1cc2nc(NCCCN3CCCC3=O)c3ncc(-c4ccc(C(=O)NC5CC5)c(Cl)c4)n3c2cc1C [Example 2-182, 2-chloro-N-cyclopropyl-4-(7,8-dimethyl-4-{[3-(2-oxopyrrolidin-1-yl)propyl]amino}imidazo[1,2-a]quinoxalin-1-yl)benzamide]	444
CCCNc1nc2cc(C#N)ccc2n2c(-c3ccc(C(=O)NC4CC4)c(Cl)c3)cnc12 [Example 2-234, 2-chloro-4-[7-cyano-4-(propylamino)imidazo[1,2-a]quinoxalin-1-yl]-N-cyclopropylbenzamide]	810
CC(=O)Nc1cccc(NC(=O)c2ccc(-c3cnc4c(NCC(C)C)nc5ccccc5n34)cc2)c1 [Example 3-14, N-[3-(acetylamino)phenyl]-4-{4-[(2-methylpropyl)amino]imidazo[1,2-a]quinoxalin-1-yl}benzamide]	624
N#Cc1ccc2c(c1)nc(NCCCN1CCOCC1)c1ncc(-c3ccc(C(=O)NC4CC4)c(Cl)c3)n12 [Example 2-236, 2-chloro-4-(7-cyano-4-{[3-(morpholin-4-yl)propyl]amino}imidazo[1,2-a]quinoxalin-1-yl)-N-cyclopropylbenzamide]	15000
N#Cc1ccc2c(c1)nc(NCc1cccnc1)c1ncc(-c3ccc(C(=O)NC4CC4)c(Cl)c3)n12 [Example 2-245, 2-chloro-4-{7-cyano-4-[(pyridin-3-ylmethyl)amino]imidazo[1,2-a]quinoxalin-1-yl}-N-cyclopropylbenzamide]	1120
O=C(NC1CC1)c1ccc(-c2cnc3c(NCCCN4CCOCC4)nc4ccc(F)cc4n23)cc1 [Example 2-42, N-cyclopropyl-4-(8-fluoro-4-{[3-(morpholin-4-yl)propyl]amino}imidazo[1,2-a]quinoxalin-1-yl)benzamide]	335
Cc1cc2nc(NCCCn3ccnc3)c3ncc(-c4ccc(C(=O)NC5CC5)c(Cl)c4)n3c2cc1C [Example 2-189, 2-chloro-N-cyclopropyl-4-(4-{[3-(1H-imidazol-1-yl)propyl]amino}-7,8-dimethylimidazo[1,2-a]quinoxalin-1-yl)benzamide]	82.7
O=C(NC1CC1)c1ccc(-c2cnc3c(NCCCCN4CCCC4)nc4ccccc4n23)cc1 [Example 2-31, N-cyclopropyl-4-(4-{[4-(pyrrolidin-1-yl)butyl]amino}imidazo[1,2-a]quinoxalin-1-yl)benzamide]	321
CCCCCNc1nc2ccccc2n2c(-c3ccc(C(=O)NC4CC4)cc3)cnc12 [Example 2-10, N-cyclopropyl-4-[4-(pentylamino)imidazo[1,2-a]quinoxalin-1-yl]benzamide]	92.4
CC(C)CNc1nc2ccccc2n2c(-c3ccc(C(N)=O)cc3)cnc12 [Example 1-15, 4-{4-[(2-methylpropyl)amino]imidazo[1,2-a]quinoxalin-1-yl}benzamide]	399
COCCCNc1nc2ccc(F)cc2n2c(-c3ccc(C(=O)NC4CC4)c(Cl)c3)cnc12 [Example 2-83, 2-chloro-N-cyclopropyl-4-{8-fluoro-4-[(3-methoxypropyl)amino]imidazo[1,2-a]quinoxalin-1-yl}benzamide]	6700
Cc1cccc(CNc2nc3ccccc3n3c(-c4ccc(C(=O)NC5CC5)cc4)cnc23)c1 [Example 2-4, N-cyclopropyl-4-{4-[(3-methylbenzyl)amino]imidazo[1,2-a]quinoxalin-1-yl}benzamide]	132
N#Cc1ccc2c(c1)nc(NCC(O)CO)c1ncc(-c3ccc(C(=O)NC4CC4)c(Cl)c3)n12 (stereo not drawn) [Example 2-254, 2-chloro-4-{7-cyano-4-[(2,3-dihydroxypropyl)amino]imidazo[1,2-a]quinoxalin-1-yl}-N-cyclopropylbenzamide]	5530

Now those with a lower IC50, led by results:

IC50 [nM]	Structure (SMILES)
25.9	Cc1cc2nc(NCc3ccnn3C)c3ncc(-c4ccc(C(=O)NC5CC5)c(Cl)c4)n3c2cc1C [Example 2-199, 2-chloro-N-cyclopropyl-4-(7,8-dimethyl-4-{[(1-methyl-1H-pyrazol-5-yl)methyl]amino}imidazo[1,2-a]quinoxalin-1-yl)benzamide]
76.8	O=C(NC1CC1)c1ccc(-c2cnc3c(NCc4ccc(F)cc4)nc4ccc(F)cc4n23)cc1 [Example 2-46, N-cyclopropyl-4-{8-fluoro-4-[(4-fluorobenzyl)amino]imidazo[1,2-a]quinoxalin-1-yl}benzamide]
62.3	Cc1cc2nc(NCCS(N)(=O)=O)c3ncc(-c4ccc(C(=O)NC5CC5)c(Cl)c4)n3c2cc1C [Example 2-201, 2-chloro-N-cyclopropyl-4-{7,8-dimethyl-4-[(2-sulfamoylethyl)amino]imidazo[1,2-a]quinoxalin-1-yl}benzamide]
79.5	COCCNc1nc2cc(C#N)ccc2n2c(-c3ccc(C(=O)NC4CC4)cc3)cnc12 [Example 2-208, 4-{7-cyano-4-[(2-methoxyethyl)amino]imidazo[1,2-a]quinoxalin-1-yl}-N-cyclopropylbenzamide]
24.8	CCCNc1nc2cc(C)c(C)cc2n2c(-c3ccc(C(=O)NC4CC4)c(Cl)c3)cnc12 [Example 2-178, 2-chloro-N-cyclopropyl-4-[7,8-dimethyl-4-(propylamino)imidazo[1,2-a]quinoxalin-1-yl]benzamide]
5.44	Cc1cc2nc(NCc3cnn(C)c3)c3ncc(-c4ccc(C(=O)NC5CC5)cc4)n3c2cc1C [Example 2-157, N-cyclopropyl-4-(7,8-dimethyl-4-{[(1-methyl-1H-pyrazol-4-yl)methyl]amino}imidazo[1,2-a]quinoxalin-1-yl)benzamide]
67.6	Cc1cc2nc(NCc3cnn(C)c3)c3ncc(-c4ccc(C(=O)NC5CC5)c(Cl)c4)n3c2cc1C [Example 2-200, 2-chloro-N-cyclopropyl-4-(7,8-dimethyl-4-{[(1-methyl-1H-pyrazol-4-yl)methyl]amino}imidazo[1,2-a]quinoxalin-1-yl)benzamide]
5.61	Cc1cc2nc(NCCC(C)C)c3ncc(-c4ccc(C(=O)NC5CC5)cc4)n3c2cc1C [Example 2-145, N-cyclopropyl-4-{7,8-dimethyl-4-[(3-methylbutyl)amino]imidazo[1,2-a]quinoxalin-1-yl}benzamide]
